Source: patent EP0710485A1, “use of anserine in the manufacture of a medicament for stimulating hematopoiesis” (SUNTORY LIMITED, priority 1994, dated 1996)

Key:
[1] = tested on: IL-3; assay: IL-3 productivity of spleen cells of cyclophosphamide-treated mice (FDCP-2 cell MTT assay); format: in vivo, ICR mice; conditions: for productivity of IL-3 by spleen cells: CY 300 mg/kg i.v. alone; for IL-3 productivity of the spleen cells: CY 300 mg/kg i.v. + L-anserine 100 mg/kg every day
Protocol: 300 mg/kg dose of cyclophosphamide (CY) was intraveously injected to 7-week old ICR mice. To L-anserine (Ans)-administration group, 100 mg/kg dose of L-anserine was administrated every day from the day on which cyclophosphamide was administrated. On the third, fifth and seventh days from the administration of cyclophosphamide, spleen cells of the mouse were taken and the cells (5 × 10^6 cells/ml) were cultured in a 10% FCS-RPMI 1640 medium supplemented with 2 µg/ml of concanavalin A for 24 hours, and the supernatant was assayed for IL-3. The IL-3 activity was measured by plating 1×10^4 cells/well of IL-3 dependent FDCP-2 cells on a 96 well microtiter plate, adding twofold stepwise-diluted supernatant to the wells, culturing the cells for 24 hours, and measuring a ratio of surviving FDCP-2 cells by MTT assay using 3-(4,5-dimethylthyazol-2yl)-2,5-diphenyl tetrazolium bromide. Using a culture supernatant of WEHI cells as IL-3 standard, a concentration of IL-3 which provides 50% growth per the maximum growth of the cultured FDCP-2 cells was defined as 1 unit, and I L-3 activity of a sample was obtained by calculating a sample dilution ratio which provides 50% of the maximum absorption in the standard curve.

[2] = tested on: colony stimulating activity (CSA) in serum; assay: Colony stimulating activity (CSA) in serum of cyclophosphamide-treated mice
Protocol: 300 mg/kg dose of cyclophosphamide (CY) was intravenously injected into 7-week-old ICR mice. 100 mg/kg dose of L-anserine (Ans) was subcutaneously injected every day from the day on which cyclophosphamide was administered. On the first, third, fifth, seventh and ninth days from the administration of cyclophosphamide (on the third, fifth and seventh day for the group to which Ans was administrated), the mouse serum was taken, and colony stimulating activity (CSA) was measured. For a CSA assay in serum, 50 µl of CSA assay serum was added to a medium comprising 50 µl of bone marrow cells (1.5 × 10^6 cells/ml) aseptically recovered from the femur of a normal female ICR mouse, 200 µl of FCS, 450 µl of 0.6% agar and 300 µl of × 2 DMEM, and the mixture was stirred and cultured in 5% CO2 at 37°C for 10 days, a cell mass comprising at least 30 cells was counted as one colony, and the number of the colonies was defined as the CSA of a serum.

[3] = tested on: bone marrow cells; assay: Spontaneous proliferation of bone marrow cells (3H-thymidine uptake) from cyclophosphamide-treated mice; format: in vivo, ICR mice
Protocol: 300 mg/kg dose of cyclophosphamide (CY) was intraveously injected into 7-week-old ICR mice. […] The number of cells per femur for each mouse was counted, and the bone marrow cells for each test group were plated on a 96-well microplate (2 X 100,000 cells/well), and at the same time 0.5µ Ci/well of ^3H-thymidine was added. The cells were cultured for 5 hours, and radioactivity (C.P.M) was measured with a liquid scintillation counter. An experiment was carried out using 3 animals per group, and the results are shown by mean value ± standard error. Spontaneous proliferation ability of bone marrow cells for each group was shown in the parentheses by percentage by taking spontaneous proliferation of bone marrow cells at 0 day (untreated) as 100%.

[4] = tested on: leukocytes; assay: Leukocyte number recovery in mice given cyclophosphamide; format: in vivo, C57BL mice; conditions: for The number of leukocytes: Ans 100 mg/kg s.c. every day where given, mean ± standard error, 5 animals
Description: On the seventh, eighth and ninth days from the administration of cyclophosphamide blood samples were taken from the orbital venosus plexus of the mouse, and the number of leukocytes was counted by an automatic hemacytometer.

[5] = tested on: erythrocytes; assay: Prevention of anemia in mice given cyclophosphamide; format: in vivo, C57BL-mice
Protocol: 7-week old C57BL-mice were intravenously injected with cyclophosphamide (CY) in a dose of 300 mg/kg. L-anserine (Ans) was subcutaneously administered every day in a dose of 100 mg/kg from the day on which cyclophosphamide was administered. After 1, 3, 5, 7 and 9 days from the administration of cyclophosphamide (for L-anserine, after 3, 5 and 7 days), blood samples were taken from the orbital venosus plexus of the mouse, and the number of erythrocyte and the amount of hemoglobin were measured by an automatic hemacytometer. The experiment was carried out using three mice per experimental group, and the results are shown as mean ± standard error.

[6] = tested on: mouse bone marrow cells; assay: Colony Forming Unit in Spleen (CFU-s), transplant method, in X-ray irradiated mice; format: in vivo, C57BL/6 mouse; conditions: X-ray 6 Gy, 5 x 10^4 bone marrow cells transplanted, spleen colonies after eight days; L-anserine 100 mg/kg s.c. every day to the seventh day; versus X-ray control group
Protocol: Colony Forming Unit in Spleen (CFU-s) of mouse bone marrow cells in mouse radiated with X-ray was carried out using a transplant method. The X-ray radiation was carried out using an MBR-1520 type R X-ray radiation apparatus manufactured by Hitachi Medico. The mice were irradiated with X-rays such that the radiation dose rate was 1.16 Gy/min (150 kV, 20 mA, Filter: 0.5 mm Al + 0.1 mm Cu), and the radiation dose was 6 Gy. 5 × 10^4 bone marrow cells of normal C57BL/6 mouse were injected into a tail vein of a radiated recipient female C57BL/6 mouse. Eight days later, the spleen of the mouse was removed and fixed with Bouin solution, and the number of cell colonies formed on the spleen surface were counted. To the L-anserine-administration group 100 mg/kg dose of L-anserine was subcutaneously administrated every day from the day on which X-ray was radiated to the seventh day, and to the chicken extract-administration group 0.5 ml/head dose of chicken extract containing 2mg/ml of L-anserine was orally administrated every day from the day on which X-ray was radiated to the seventh day.

[7] = tested on: erythrocytes; assay: Treatment of anemia in mice irradiated with X-ray; format: in vivo, C57BL/mice; conditions: 4.0 Gy X-ray; L-anserine 100 mg/kg s.c. for 10 days; 14th day from irradiation
Protocol: 7-week old C57BL/mice were systemically irradiated with 4.0 Gy of X-ray. L-anserine was subcutaneously injected continuously for 10 days from the day on which X-ray was irradiated in a dose of 100 mg/kg. On 14th day from the irradiation of X-ray, blood samples were taken from the orbital venosus plexus of mice, and the number of erythrocytes and amount of hemoglobin were measured by an automatic hemacytometer. The experiment used three mice for one experimental group, and the results are shown as mean ± standard error.

[8] = CY 300 mg/kg i.v. alone, third to seventh days
[9] = CY 300 mg/kg i.v. + L-anserine 100 mg/kg s.c. every day, third day to seventh day

With O=P1(N(CCCl)CCCl)NCCCO1 (centres unmarked) [CY, cyclophosphamide] as the compound, how does the “productivity of IL-3 by spleen cells” value ([1]; first to third days) read?
The value was “inhibited”.

What about the “productivity of IL-3 by spleen cells” value ([1]; on and after the fifth day, versus normal conditions) of the same compound?
Its value is “increase of IL-3 productivity by two times”.

What about the “colony stimulating activity (CSA) in serum” value ([2]; CY 300 mg/kg i.v. alone, after the third day) of the same compound?
The value was “the inhibition was compensated by stimulation of CSA”.

And the “colony stimulating activity (CSA) in serum” value ([2]; CY 300 mg/kg i.v. alone, first day)?
The value was “inhibited”.

What about the “spontaneous proliferation ability of bone marrow cells” value (“spontaneous proliferation ability” for short) ([3]; CY 300 mg/kg i.v. alone, fifth day) of the same compound?
The value was “once recovered to the normal level”.

And the “spontaneous proliferation ability” value ([3]; CY 300 mg/kg i.v. alone, first to third days)?
Its value is “remarkably inhibited”.

And the “spontaneous proliferation ability” value ([3]; CY 300 mg/kg i.v. alone, seventh to ninth days)?
Its value is “again decreased”.

What about the “The number of leukocytes” value ([4]; 7 days after CY 300 mg/kg i.v.) of the same compound?
Its value is 32.8 ± 8.0 X 100/µl.

What about the “The number of leukocytes” value ([4]; 8 days after CY 300 mg/kg i.v.) of the same compound?
Its value is 67.4 ± 8.1 X 100/µl.

And the “The number of leukocytes” value ([4]; 9 days after CY 300 mg/kg i.v.)?
Its value is 66.6 ± 7.2 X 100/µl.

And the number of leukocytes ([4]; CY 300 mg/kg i.v. alone, time course after administration)?
The number of leukocytes was “decreased immediately after the administration, and gradually recovered before the seventh to ninth day”.

What about the amount of hemoglobin [5, 8] of the same compound?
Its amount of hemoglobin is “decrease, resulting in anemia”.

What about the number of erythrocytes [5, 8] of the same compound?
The number of erythrocytes was “decrease, resulting in anemia”.

What does the source list for Cn1cncc1C[C@H](NC(=O)CCN)C(=O)O [L-anserine, β-alanyl-π-methyl-L-histidine]?
IL-3 productivity of the spleen cells ([1]; fifth and seventh days): 1.5 times higher than the control group; IL-3 productivity of the spleen cells ([1]; third to seventh days, versus CY alone control group): higher than the control group; CFU-s activity [6]: significantly higher; recovery of the concentration of hemoglobin [7]: promoted; recovery of the number of erythrocytes [7]: promoted; colony stimulating activity (CSA) in serum ([2]; CY 300 mg/kg i.v. + L-anserine 100 mg/kg s.c. every day, third day): 1.5 times higher than the control group; colony stimulating activity (CSA) in serum ([2]; CY 300 mg/kg i.v. + L-anserine 100 mg/kg s.c. every day, third to seventh days, versus CY alone control): higher than that of the control; spontaneous proliferation ability of bone marrow cells ([3]; CY 300 mg/kg i.v. + L-anserine 100 mg/kg s.c. every day, third and seventh days, versus CY alone control group): at least two times higher than the control group; spontaneous proliferation ability of bone marrow cells ([3]; CY 300 mg/kg i.v. + L-anserine 100 mg/kg s.c. every day, third to seventh days, versus CY alone control group): significantly higher than that of the control group; number of leukocytes ([4]; CY 300 mg/kg i.v. + L-anserine 100 mg/kg s.c. every day, eighth and ninth days): ~1.5 times higher than that of the control; number of leukocytes ([4]; CY 300 mg/kg i.v. + L-anserine 100 mg/kg s.c. every day, seventh to ninth days, versus CY alone control group): higher than that of the control group; decrease of content of hemoglobin [5, 9]: inhibited; decrease of the number of erythrocytes [5, 9]: inhibited
